Experimental data taken from patent publication US20250083204A1, “CUPRIAVIDUS METALLIDURANS CML2, ITS PREPARATION, AND ITS BIOR[…] FOR HEAVY METAL-CONTAMINATED ENVIRONMENT” (priority 2023, published 2025).
Several values for one entry are separate records, joined by “and”; a condition that tells them apart may be missing. Identical values can stand only once.

Assays:
rice seedling = test: Rice seedling root and shoot growth; assay type: in vivo; details: 14-day cultivation, cadmium alone
Description: FIG. 7A-7C are schematic diagrams illustrating an effect of Cupriavidus metallidurans CML2 inoculation on rice seedling growth and cadmium remediation. FIG. 7A illustrates the effects of Cupriavidus metallidurans CML2 on rice seedling morphology; FIG. 7B illustrates the effects of Cupriavidus metallidurans CML2 on relative lengths of the root and shoot under different conditions. C: control, treated with sterile NB medium; CML2: treated with strain CML2; Cd: treated with Cd^2+; CML2+Cd: treated with both CML2 and Cd^2+; FIG. 7C illustrates the effects of Cupriavidus metallidurans CML2 on cadmium accumulation in rice seedling roots and shoots; data represents means±SEM; different letters (a or b) above the columns indicate significant differences between the three groups using one-way ANOVA at P<0.05; “***” indicates statistically significant differences according to a t-test, P<0.001.
To assess the impact of strain CML2 as a facilitator for plant growth and a cadmium remediation agent, Embodiment 8 conducted an analysis on the relative lengths of rice roots and shoots as well as cadmium concentrations, under different treatments: control, Cupriavidus metallidurans CML2 (CML2), cadmium (Cd), and CML2+Cd (Simultaneous treatment with cadmium and CML2). The control group (C) consisted of rice plants cultured in a sterile nutrient solution.

[1] = system: Cupriavidus metallidurans CML2; assay type: cell-based; details: for MIC: lowest concentration of heavy metal inhibiting growth of CML2
Description: Note that the MIC values refer to the lowest concentration of each heavy metal required to inhibit the growth of Cupriavidus metallidurans CML2.

Row | Compound | inhibition of rice root and shoot growth compared to control (rice seedling) | tolerance of CML2 to heavy metal [1] | MIC [1]
1 | [Cd+2] [Cadmium (Cd^2+), Cadmium] | approximately 89% | 13 mM and 2400 mg/L | 13.1 mM
2 | [Cu+2] [Copper (Cu^2+), Copper] | – | – | 2.0 mM
3 | [Mn+2] [Manganese (Mn^2+), Manganese] | – | 110 mM | 110 mM
4 | [Ni+2] [Nickel (Ni^2+), Nickel] | – | – | 2.5 mM
5 | [Se+4] [Selenium (Se^4+), Selenium] | – | – | 45 mM
6 | [Zn+2] [Zinc (Zn^2+), Zinc] | – | – | 20 mM
7 | Mercury [Mercury (Hg^2+)] | – | 0.03 mM | 0.03 mM
